Laboratory results published in US9675624B2, “Combination of levocabastine and fluticasone furoate for the treatment of inflammatory and/or allergic conditions” (Glaxo Group Limited, priority 2012, dated 2017).

Assay: Competitive ripening experiments on levocabastine free base forms
Assay type: physicochemical
Text: It has been observed that the levocabastine HCl salt converts during the preparation of formulations of the invention (e.g. as described in Examples 1 and 2) to levocabastine free base. Levocabastine free base Forms 1 and 2 were observed during the form screen of the HCl salt and during pH solubility studies.

C[C@@H]1CN(C2CCC(C#N)(c3ccc(F)cc3)CC2)CC[C@]1(C(=O)O)c1ccccc1 (stereo partly drawn) [levocabastine Form 1, (3S,4R)-1-[4-cyano-4-(4-fluorophenyl)cyclohexyl]-3-methyl-4-phenylpiperidine-4-carboxylic acid]
relative stability of polymorphic forms of the free base: most stable form
